Data from PubChem BioAssay (NCI).
Where “and” joins values, the source holds several entries; their conditions need not be identical. Equal entries are not always repeated.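 Following 48 hours of exposure in 96-well plates, responses at five concentrations were used to interpolate endpoints linearly. GI50 is the concentration that inhibits growth by half. TGI: total growth inhibition.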

What was measured:
Test in all cases: NCI-60 cell line screen, 48 h
[1] = tested on: A549 NSCLC
[2] = tested on: EKVX NSCLC
[3] = tested on: HOP-62 NSCLC
[4] = tested on: LOX IMVI melanoma
[5] = tested on: M14 melanoma
[6] = tested on: SK-MEL-5 melanoma
[7] = tested on: SK-OV-3 ovarian
[8] = tested on: SN12C renal
[9] = tested on: T-47D breast
[10] = tested on: UACC-257 melanoma

Structure (SMILES) | GI50 [1] | TGI [1] | GI50 [2] | TGI [2] | GI50 [3] | TGI [3] | GI50 [4] | TGI [4] | GI50 [5] | TGI [5] | GI50 [6] | TGI [6] | GI50 [7] | TGI [7] | GI50 [8] | TGI [8] | GI50 [9] | TGI [9] | GI50 [10] | TGI [10]
CSc1nc2nc(-c3ccccc3)c(C)c-2c2n1C(C)C(=O)N2 (stereo not drawn) | 40.1 µM | > 100 µM | 65.7 µM | > 100 µM | 44.7 µM | > 100 µM | 46.7 µM | > 100 µM | 38.6 µM | > 100 µM | 16.9 µM | 35.5 µM | 8.43 µM | 59.1 µM | 52.6 µM | > 100 µM | 29.8 µM | > 100 µM | 51.3 µM | > 100 µM
COc1cc2nnc3c4cccnc4[nH]c3c2cc1OC | 16 µM and 7.9 µM | 50 µM and 31.7 µM | 3.39 µM and 2.43 µM | 50 µM and 8 µM | 13.5 µM and 2.26 µM | 37.1 µM and 5.61 µM | 1.43 µM and 1.41 µM | 15.7 µM and 4.69 µM | 8.18 µM and 1.79 µM | 27.4 µM and 3.49 µM | 8.57 µM and 7.33 µM | 21.2 µM and 22.2 µM | 8.47 µM and 2.29 µM | 36 µM and 9.24 µM | 1.9 µM and 2.27 µM | 19.2 µM and 8.47 µM | 0.595 µM and 0.401 µM | 5.61 µM and 3.42 µM | 9.13 µM and 3.32 µM | 50 µM and 27.7 µM
COc1ccc(-c2cc(/C=C/C(=O)c3ccc(N)cc3)[nH]n2)cc1OC | 2.75 µM | 10.1 µM | – | – | 2.8 µM | 9.67 µM | 1.92 µM | 3.91 µM | 2.28 µM | 5.11 µM | 3.16 µM | 11.5 µM | 4.86 µM | 16.8 µM | 3.53 µM | 13.7 µM | 4.25 µM | 26 µM | 6.46 µM | 19.5 µM
Nc1nc(=S)c2ncn(C3OC(COP(=O)(O)O)C(O)C3O)c2[nH]1 (stereo not drawn) | 4.69 µM | > 100 µM | 2.34 µM | > 100 µM | 0.447 µM | 12.7 µM | 0.322 µM | 14.2 µM | 0.503 µM | 32.8 µM | 3.25 µM | 11.7 µM | 0.471 µM | 5.09 µM | 3.66 µM | > 100 µM | 0.541 µM | > 100 µM | 4.57 µM | > 100 µM
CN1CCN(c2c(F)cc(NC3=C(Cl)C(=O)c4ncccc4C3=O)cc2F)CC1 | 18 µM | 35.4 µM | 14.9 µM | 33.4 µM | 19.2 µM | 42.9 µM | 2.15 µM | 5.17 µM | 4.34 µM | 15.3 µM | 15.2 µM | 28.8 µM | 25.2 µM | 72 µM | 3.22 µM | 13.2 µM | 1.95 µM | 5.04 µM | 1.68 µM | 3.39 µM
Cn1c(=O)c2nc3sc4c(n3c2n(C)c1=O)C(=O)c1ccccc1C4=O | – | > 100 µM | – | > 100 µM | – | > 53.3 µM | – | > 54.7 µM | – | > 100 µM | – | > 100 µM | – | > 60.9 µM | – | > 87.5 µM | – | 23.6 µM | – | > 100 µM
CCOC(=O)/C(=C\c1cccc(C)c1)C(C)=O | – | > 100 µM | – | > 100 µM | – | 96.1 µM | – | 26.5 µM | – | 44.3 µM | – | 32 µM | – | > 100 µM | – | 41.7 µM | – | 46.7 µM | – | 35.1 µM
O=C1c2ccccc2C(=O)c2c(NC3CCCCC3)ccc(Nc3ccc(S(=O)(=O)O)cc3)c21 | – | > 100 µM | – | 64.4 µM | – | > 100 µM | – | > 100 µM | – | > 100 µM | – | > 100 µM | – | > 100 µM | – | 60.5 µM | – | > 100 µM | – | 63.7 µM
Cc1cnc(C(=O)NNc2nc3sc4c(c3c(=O)[nH]2)C(C)CCC4)cn1 (stereo not drawn) | 1.23 µM | 14 µM | 1.19 µM | 78.2 µM | 0.273 µM | 17.5 µM | 0.708 µM | 6.37 µM | 0.727 µM | 9.52 µM | 1.04 µM | 3.36 µM | 0.524 µM | 11.1 µM | 1.17 µM | 31.4 µM | 2.75 µM | > 100 µM | 2.61 µM | 11.3 µM
CC[C@H](C)[C@H](NC(=O)[C@H]1CCCCN1C)C(=O)N(C)[C@H](C[C@@H](OC(C)=O)c1nc(C(=O)NC23CC(C(=O)OC)(C2)C3)cs1)C(C)C | 0.00378 µM and 0.00325 µM | > 32.5 µM | 0.0475 µM and 0.0175 µM | > 32.5 µM | 0.000538 µM and 0.00325 µM | – | 0.00054 µM and 0.00325 µM | > 32.5 µM | 0.00554 µM and 0.00325 µM | 0.00618 µM | 0.000748 µM and 0.00325 µM | 0.0299 µM and 0.0384 µM | 0.0022 µM and 0.00357 µM | > 32.5 µM | 0.000654 µM and 0.00325 µM | > 32.5 µM | 0.000499 µM | – | – | –
CC(=O)Oc1c(C(=O)[O-])cc(C(C)C)cc1C(C)C.CC(=O)Oc1c(C(=O)[O-])cc(C(C)C)cc1C(C)C.CC(=O)Oc1c(C(=O)[O-])cc(C(C)C)cc1C(C)C.CC(=O)Oc1c(C(=O)[O-])cc(C(C)C)cc1C(C)C.[Cu+2].[Cu+2] | 32.4 µM | > 100 µM | 37.5 µM | 73.2 µM | 25 µM | 54.4 µM | 2.74 µM | 25.8 µM | 49.3 µM | > 100 µM | 18 µM | 32.9 µM | 14.4 µM | 35.4 µM | 19.8 µM | 65.9 µM | 52 µM | > 100 µM | 18.2 µM | 36.9 µM
CCc1ccc(Nc2cc(C)c3ccc(O)cc3n2)cc1 | – | – | – | – | 11.5 µM | 24.3 µM | 5.03 µM | 18.5 µM | 5.42 µM | 18.1 µM | 4.08 µM | 14.3 µM | 12.6 µM | 25.2 µM | 6.24 µM | 23.5 µM | 4.83 µM | 23.3 µM | – | –
Cc1cc(Cl)nc(N(CCNc2ccnc3cc(Cl)ccc23)Cc2ccco2)n1 | 3.1 µM | 13.1 µM | 2.68 µM | 12.1 µM | 2.04 µM | 4.79 µM | 1.72 µM | 3.2 µM | 1.88 µM | 3.63 µM | 1.67 µM | 3.06 µM | 2.56 µM | 7.44 µM | 1.98 µM | 3.95 µM | 1.66 µM | 3.61 µM | 1.97 µM | 4.16 µM
